Reference: PubChem BioAssay (NCI)
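The compound was tested at five concentrations on cells cultured in 96-well plates, with a 48-hour exposure period. Abbreviation: GI50, concentration required for 50% inhibition of growth. Definition used: TGI = concentration required for complete inhibition of growth.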

Assays:
Test in all cases: NCI anticancer screen, dose series, 48 h
786-0 renal = tested on: 786-0 renal
T-47D breast = tested on: T-47D breast
OVCAR-4 ovarian = tested on: OVCAR-4 ovarian
SNB-75 CNS = tested on: SNB-75 CNS
HL-60(TB) leukemia = tested on: HL-60(TB) leukemia
UO-31 renal = tested on: UO-31 renal
KM12 colon = tested on: KM12 colon
SF-268 CNS = tested on: SF-268 CNS
ACHN renal = tested on: ACHN renal
SNB-19 CNS = tested on: SNB-19 CNS
BT-549 breast = tested on: BT-549 breast
OVCAR-5 ovarian = tested on: OVCAR-5 ovarian
SK-MEL-5 melanoma = tested on: SK-MEL-5 melanoma
LOX IMVI melanoma = tested on: LOX IMVI melanoma
SK-MEL-2 melanoma = tested on: SK-MEL-2 melanoma
MCF7 breast = tested on: MCF7 breast
NCI-H460 lung = tested on: NCI-H460 lung
HOP-62 NSCLC = tested on: HOP-62 NSCLC
A549 NSCLC = tested on: A549 NSCLC
OVCAR-8 ovarian = tested on: OVCAR-8 ovarian
RPMI-8226 leukemia = tested on: RPMI-8226 leukemia
CCRF-CEM leukemia = tested on: CCRF-CEM leukemia
SF-539 CNS = tested on: SF-539 CNS
MOLT-4 leukemia = tested on: MOLT-4 leukemia
U251 CNS = tested on: U251 CNS
PC-3 prostate = tested on: PC-3 prostate
MDA-MB-231 breast = tested on: MDA-MB-231 breast
K-562 leukemia = tested on: K-562 leukemia
NCI-H226 lung = tested on: NCI-H226 lung
EKVX NSCLC = tested on: EKVX NSCLC
HCT-116 colon = tested on: HCT-116 colon
RXF 393 renal = tested on: RXF 393 renal
HCC-2998 colon = tested on: HCC-2998 colon
TK-10 renal = tested on: TK-10 renal
OVCAR-3 ovarian = tested on: OVCAR-3 ovarian
SF-295 CNS = tested on: SF-295 CNS
IGROV1 ovarian = tested on: IGROV1 ovarian
NCI-H23 lung = tested on: NCI-H23 lung
SN12C renal = tested on: SN12C renal
A498 renal = tested on: A498 renal
MALME-3M melanoma = tested on: MALME-3M melanoma
HOP-92 NSCLC = tested on: HOP-92 NSCLC
COLO 205 colon = tested on: COLO 205 colon
HT29 colon = tested on: HT29 colon
MDA-MB-468 breast = tested on: MDA-MB-468 breast
NCI-H522 lung = tested on: NCI-H522 lung
MDA-MB-435 = tested on: MDA-MB-435
SR leukemia = tested on: SR leukemia
CAKI-1 renal = tested on: CAKI-1 renal
M14 melanoma = tested on: M14 melanoma
HCT-15 colon = tested on: HCT-15 colon
DU-145 prostate = tested on: DU-145 prostate
HS 578T breast = tested on: HS 578T breast
SK-MEL-28 melanoma = tested on: SK-MEL-28 melanoma

COC[C@@H](CC(C)C)N=C1NC(=O)/C(=C/c2ccc3ncoc3c2)N1
GI50 (786-0 renal): 5.31 µM
TGI (786-0 renal): > 100 µM
GI50 (T-47D breast): 2.2 µM
TGI (T-47D breast): 9.96 µM
GI50 (OVCAR-4 ovarian): 10.2 µM
TGI (OVCAR-4 ovarian): > 100 µM
GI50 (SNB-75 CNS): 0.0317 µM
TGI (SNB-75 CNS): 4.01 µM
GI50 (HL-60(TB) leukemia): 3.48 µM
TGI (HL-60(TB) leukemia): 23.4 µM
GI50 (UO-31 renal): 2.67 µM
TGI (UO-31 renal): 35.3 µM
GI50 (KM12 colon): 3.39 µM
TGI (KM12 colon): > 100 µM
GI50 (SF-268 CNS): 3.65 µM
TGI (SF-268 CNS): 57.3 µM
GI50 (ACHN renal): 2.89 µM
TGI (ACHN renal): > 100 µM
GI50 (SNB-19 CNS): 1.99 µM
TGI (SNB-19 CNS): > 100 µM
GI50 (BT-549 breast): 2.44 µM
TGI (BT-549 breast): 11.4 µM
GI50 (OVCAR-5 ovarian): 3.52 µM
TGI (OVCAR-5 ovarian): > 100 µM
GI50 (SK-MEL-5 melanoma): 2.44 µM
TGI (SK-MEL-5 melanoma): 12 µM
GI50 (LOX IMVI melanoma): 2.87 µM
TGI (LOX IMVI melanoma): > 100 µM
GI50 (SK-MEL-2 melanoma): 1.93 µM
TGI (SK-MEL-2 melanoma): 4.36 µM
GI50 (MCF7 breast): 2.69 µM
TGI (MCF7 breast): > 100 µM
GI50 (NCI-H460 lung): 2.67 µM
TGI (NCI-H460 lung): > 100 µM
GI50 (HOP-62 NSCLC): 2.89 µM
TGI (HOP-62 NSCLC): > 100 µM
GI50 (A549 NSCLC): 2.65 µM
TGI (A549 NSCLC): > 100 µM
GI50 (OVCAR-8 ovarian): 2.88 µM
TGI (OVCAR-8 ovarian): > 100 µM
GI50 (RPMI-8226 leukemia): 3.19 µM
TGI (RPMI-8226 leukemia): > 100 µM
GI50 (CCRF-CEM leukemia): 2.6 µM
TGI (CCRF-CEM leukemia): 9.93 µM
GI50 (SF-539 CNS): 0.618 µM
TGI (SF-539 CNS): 7.11 µM
GI50 (MOLT-4 leukemia): 4.27 µM
TGI (MOLT-4 leukemia): > 100 µM
GI50 (U251 CNS): 2.72 µM
TGI (U251 CNS): > 100 µM
GI50 (PC-3 prostate): 5.72 µM
TGI (PC-3 prostate): > 100 µM
GI50 (MDA-MB-231 breast): 5.64 µM
TGI (MDA-MB-231 breast): > 100 µM
GI50 (K-562 leukemia): 2.92 µM
TGI (K-562 leukemia): > 100 µM
GI50 (NCI-H226 lung): 2.18 µM
TGI (NCI-H226 lung): > 100 µM
GI50 (EKVX NSCLC): 3.55 µM
TGI (EKVX NSCLC): > 100 µM
GI50 (HCT-116 colon): 2.13 µM
TGI (HCT-116 colon): > 100 µM
GI50 (RXF 393 renal): 2.72 µM
TGI (RXF 393 renal): 9.18 µM
GI50 (HCC-2998 colon): 7.43 µM
TGI (HCC-2998 colon): > 100 µM
GI50 (TK-10 renal): 3.24 µM
TGI (TK-10 renal): > 100 µM
GI50 (OVCAR-3 ovarian): 1.08 µM
TGI (OVCAR-3 ovarian): 4.69 µM
GI50 (SF-295 CNS): 3.65 µM
TGI (SF-295 CNS): > 100 µM
GI50 (IGROV1 ovarian): 2.73 µM
TGI (IGROV1 ovarian): > 100 µM
GI50 (NCI-H23 lung): 2.21 µM
TGI (NCI-H23 lung): 8.75 µM
GI50 (SN12C renal): 3.12 µM
TGI (SN12C renal): > 100 µM
GI50 (A498 renal): 1.34 µM
TGI (A498 renal): 6.88 µM
GI50 (MALME-3M melanoma): 3.06 µM
TGI (MALME-3M melanoma): 50.5 µM
GI50 (HOP-92 NSCLC): 2.58 µM
TGI (HOP-92 NSCLC): 9.48 µM
GI50 (COLO 205 colon): 2.23 µM
TGI (COLO 205 colon): 8.06 µM
GI50 (HT29 colon): 4.3 µM
TGI (HT29 colon): 24.1 µM
GI50 (MDA-MB-468 breast): 1.35 µM
TGI (MDA-MB-468 breast): 6.99 µM
GI50 (NCI-H522 lung): 2.13 µM
TGI (NCI-H522 lung): 8.52 µM
GI50 (MDA-MB-435): 4.33 µM
TGI (MDA-MB-435): > 100 µM
GI50 (SR leukemia): 2.87 µM
TGI (SR leukemia): > 100 µM
GI50 (CAKI-1 renal): 2.59 µM
TGI (CAKI-1 renal): > 100 µM
GI50 (M14 melanoma): 5.64 µM
TGI (M14 melanoma): > 100 µM
GI50 (HCT-15 colon): 2.43 µM
TGI (HCT-15 colon): > 100 µM
GI50 (DU-145 prostate): 3.74 µM
TGI (DU-145 prostate): > 100 µM
GI50 (HS 578T breast): 2.31 µM
TGI (HS 578T breast): 9.22 µM
GI50 (SK-MEL-28 melanoma): 2.66 µM
TGI (SK-MEL-28 melanoma): 8.79 µM
